Key:
[1] = tested on: STn+CD133+ OV90 cells; assay: Cell viability of OV90 cells by MTT assay, chemotherapeutic vs antibody treatment (Example 6); type: cell-based, human; details: OV90 cells cultured 72 to 144 hours; normalized to vehicle only control
Description: STn+CD133+ OV90 and CSC sub-fractions were treated with different concentrations of paclitaxel (FIG. 2A), carboplatin (FIG. 2B), paclitaxel and carboplatin (FIG. 2C) or with unconjugated anti-STn antibody S3F (FIG. 2D). OV90 cells were cultured for 72 to 144 hours with the indicated chemotherapeutic drug or antibody concentrations and cell viability was analyzed by MTT assay. All values were normalized to a vehicle only control.

[2] = tested on: OVCAR4 cells; assay: Relative frequency of OVCAR4 STn/CD133 subpopulations after chemotherapy treatment (Example 13); type: cell-based, human; details: vs vehicle
Description: The potential for anti-STn antibodies to target stem cells after treatment of OVCAR4 cells with chemotherapy agents (paclitaxel and/or carboplatin) was evaluated. The relative frequency of the OVCAR4 subpopulations observed following treatment with either vehicle (shaded) or the indicated chemotherapy regimen is shown in FIG. 6.

[3] = tested on: OVCAR3 cells; assay: OVCAR3 cell viability by MTT assay, chemotherapeutic vs antibody treatment (Example 15); type: cell-based, human; details: 72 hours, increasing doses, normalized to vehicle control
Description: The viability of OVCAR3 cells grown in culture was assessed following treatment with carboplatin, paclitaxel, carboplatin and paclitaxel, or S3F (FIG. 7). OVCAR3 cells were cultured for 72 hours with the indicated concentrations of paclitaxel, carboplatin, paclitaxel/carboplatin combination, or S3F. Relative cell viability was determined by measuring cellular metabolic activity using an MTT assay (EMD Millipore, Billerica, Mass.). For each experiment, all values were normalized to the vehicle control.

[4] = tested on: STn positive cells in OVCAR3 xenograft tissues; assay: STn expression in xenograft tissues by flow cytometry at end of OVCAR3 in vivo study (Example 20); design: species or system NOD/SCID mice; details: 5 mg/kg weekly
Description: OVCAR3 cells were injected into NOD/SCID mice to generate tumor xenografts. Once a sufficient number of mice developed tumor volumes ranging from 200-500 mm^3, mice were randomized into 5 groups (about 6-7 mice/group) with essentially equivalent group mean tumor volumes. Each group received weekly treatments according to the following Table.
At the end of the study, xenograft tissues were processed to a single cell suspension and assessed for STn expression by flow cytometry. Around 80% of the cells in tissues from groups 1, 4, and 5 were STn positive, while the cells from group 2 mice were less than 40% STn positive (a reduction of about 50%) and cells from group 3 mice were around 10% STn positive (a reduction of greater than 85%).

[5] = tested on: ovarian cancer tissue; assay: Immunohistochemical staining of ovarian cancer tissue sections (Example 9); details: primary antibody; compared to normal IgG and no primary antibody
From the text: Tissue sections from ovarian cancer tissue were subjected to immunohistochemical staining to identify cells expressing STn using S3F antibody as a primary antibody. Bound antibody was detected using a peroxidase-based secondary detection system.

N.N.O=C([O-])C1(C(=O)[O-])CCC1.[Pt+2] [carboplatin]
cell viability (MTT assay) [1]: significantly reduced | relative frequency of STn-negative subpopulations (STn-/CD133- and STn-/CD133+) [2]: decrease | relative frequency of STn-positive subpopulations (STn+/CD133- and STn+/CD133+) [2]: increase | relative cell viability (metabolic activity, MTT assay) [3]: decreased cell viability

CC(=O)O[C@H]1C(=O)[C@@]2(C)[C@H]([C@H](OC(=O)c3ccccc3)[C@]3(O)C[C@H](OC(=O)[C@H](O)[C@@H](NC(=O)c4ccccc4)c4ccccc4)C(C)=C1C3(C)C)[C@]1(OC(C)=O)CO[C@@H]1C[C@@H]2O [paclitaxel]
cell viability (MTT assay) [1]: significantly reduced | relative frequency of STn-negative subpopulations (STn-/CD133- and STn-/CD133+) [2]: decrease | relative frequency of STn-positive subpopulations (STn+/CD133- and STn+/CD133+) [2]: increase | relative cell viability (metabolic activity, MTT assay) [3]: decreased cell viability

B1: S3F: anti-STn IgG2a antibody: mouse 3F1 variable domains (SEQ ID NO: 1, 2) with mouse IgG2a constant domains; full chains SEQ ID NO: 7, 8 (antibody)
heavy: QVQLQQSDAELVKPGASVKISCKASGYTFTDHAIHWVKQKPEQGLDWIGYISPGNGDIKYNEKFKDKVTLTADKSSSTACMHLNSLTSEDSAVYFCKRSLLALDYWGQGTTLTVSSAKTTAPSVYPLAPVCGDTTGSSVTLGCLVKGYFPEPVTLTWNSGSLSSGVHTFPAVLQSDLYTLSSSVTVTSSTWPSQSITCNVAHPASSTKVDKKIEPRGPTIKPCPPCKCPAPNLLGGPSVFIFPPKIKDVLMISLSPIVTCVVVDVSEDDPDVQISWFVNNVEVHTAQTQTHREDYNSTLRVVSALPIQHQDWMSGKEFKCKVNNKDLPAPIERTISKPKGSVRAPQVYVLPPPEEEMTKKQVTLTCMVTDFMPEDIYVEWTNNGKTELNYKNTEPVLDSDGSYFMYSKLRVEKKNWVERNSYSCSVVHEGLHNHHTTKSFSRTPGK
light: DIVMTQSHKFMSTSVGDRVSITCKASQDVGTNIAWYQQKPGRSPKVLIYSASTRHTGVPDRFTGSGSGTDFTLTISNVQSEDLTDYFCQQYSSFPLTFGVGTKLELKRADAAPTVSIFPPSSEQLTSGGASVVCFLNNFYPKDINVKWKIDGSERQNGVLNSWTDQDSKDSTYSMSSTLTLTKDEYERHNSYTCEATHKTSTSPIVKSFNRNEC
cell viability (MTT assay) [1]: no significant effect | relative cell viability (metabolic activity, MTT assay) [3]: no loss of viability | STn positive cells in xenograft tissues [4]: Around 80% | immunohistochemical staining of STn-expressing cells [5]: Numerous cells showed positive staining

B2: SIA101: anti-STn IgG2a antibody: SIA101 variable domains (SEQ ID NO: 3, 4) with mouse IgG2a constant domains (antibody, V domains shown)
VH: QVQLQQSDXELVKPGASVKISCKASGYTFTDHAIHWVKQKPEQGLEWIGYFSPGNDDIKYNEKFRGKATLTADKSSSTAYMQLNSLSSDDSAVYFCKRSLSTPYWGQGTLXTVSA
VL: DIVMTQSPSSLTVTAGEKVTMSCKSSQSLLNRGNHKNYLTWYRQKPGLPPKLLIYWASTRESGVPDRFTGSGSGTDFALTISSVQAEDLAVYYCQNDYTYPYTFGGGTKLEIKR
modifications: not fully specified; mouse IgG2a constant domains; MOD_RES (9)..(9) Any amino acid; MOD_RES (111)..(111) Any amino acid
STn positive cells in xenograft tissues [4]: Around 80%

— patent publication US20190031780A1, “COMPOSITIONS AND METHODS FOR TARGETING CANCER STEM CELLS” (Siamab Therapeutics, Inc., priority 2016, published 2019)
